From PubChem BioAssay (NCI)
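Assay format: 96-well plates, 48-hour exposure. TGI: total growth inhibition.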

Assays:
Experiment in all cases: inhibition of tumour cell growth, NCI panel, 48 h
ACHN renal = system: ACHN renal
DU-145 prostate = system: DU-145 prostate
UACC-257 melanoma = system: UACC-257 melanoma
M14 melanoma = system: M14 melanoma
A549 NSCLC = system: A549 NSCLC
HCC-2998 colon = system: HCC-2998 colon
K-562 leukemia = system: K-562 leukemia
OVCAR-8 ovarian = system: OVCAR-8 ovarian
SK-MEL-5 melanoma = system: SK-MEL-5 melanoma
SK-OV-3 ovarian = system: SK-OV-3 ovarian
MALME-3M melanoma = system: MALME-3M melanoma
A498 renal = system: A498 renal
HCT-15 colon = system: HCT-15 colon
SN12C renal = system: SN12C renal
CAKI-1 renal = system: CAKI-1 renal
RPMI-8226 leukemia = system: RPMI-8226 leukemia
PC-3 prostate = system: PC-3 prostate
NCI-H226 lung = system: NCI-H226 lung
IGROV1 ovarian = system: IGROV1 ovarian
OVCAR-4 ovarian = system: OVCAR-4 ovarian
SK-MEL-28 melanoma = system: SK-MEL-28 melanoma
UACC-62 melanoma = system: UACC-62 melanoma
MDA-MB-231 breast = system: MDA-MB-231 breast
786-0 renal = system: 786-0 renal
TK-10 renal = system: TK-10 renal
SF-295 CNS = system: SF-295 CNS
MOLT-4 leukemia = system: MOLT-4 leukemia
MDA-MB-435 = system: MDA-MB-435
SR leukemia = system: SR leukemia
MCF7 breast = system: MCF7 breast
MDA-N = system: MDA-N
COLO 205 colon = system: COLO 205 colon
SK-MEL-2 melanoma = system: SK-MEL-2 melanoma
SF-268 CNS = system: SF-268 CNS
SNB-19 CNS = system: SNB-19 CNS
T-47D breast = system: T-47D breast
SW-620 colon = system: SW-620 colon
UO-31 renal = system: UO-31 renal
NCI-H460 lung = system: NCI-H460 lung
OVCAR-3 ovarian = system: OVCAR-3 ovarian
HS 578T breast = system: HS 578T breast
OVCAR-5 ovarian = system: OVCAR-5 ovarian
RXF 393 renal = system: RXF 393 renal
HCT-116 colon = system: HCT-116 colon
U251 CNS = system: U251 CNS
EKVX NSCLC = system: EKVX NSCLC
CCRF-CEM leukemia = system: CCRF-CEM leukemia
KM12 colon = system: KM12 colon
HT29 colon = system: HT29 colon
NCI/ADR-RES ovarian = system: NCI/ADR-RES ovarian
BT-549 breast = system: BT-549 breast
HOP-62 NSCLC = system: HOP-62 NSCLC
NCI-H522 lung = system: NCI-H522 lung
SNB-75 CNS = system: SNB-75 CNS
NCI-H23 lung = system: NCI-H23 lung
HOP-92 NSCLC = system: HOP-92 NSCLC
LOX IMVI melanoma = system: LOX IMVI melanoma
SF-539 CNS = system: SF-539 CNS
HL-60(TB) leukemia = system: HL-60(TB) leukemia

Measured: TGI

O=c1c2sc3ccccc3sc=2c(=O)c2c(Cl)c(Cl)c(Cl)c(Cl)c12
not listed: HOP-92 NSCLC | LOX IMVI melanoma | SF-539 CNS | HL-60(TB) leukemia
> 100 µM: all other assays above

CN(/N=C/c1ccccn1)C1=NCCN1
not listed: DU-145 prostate | SN12C renal | TK-10 renal
> 100 µM: all other assays above
